Measured values taken from patent US10745397B2, “1-Substituted 1,2,3,4-tetrahydro-1,7-naphthyridin-8-amine derivatives and their use as EP4 receptor antagonists” (TAKEDA PHARMACEUTICAL COMPANY LIMITED, priority 2015, dated 2020).

Key:
human EP4 receptor = molecular target: T1, human EP4 receptor (Homo sapiens, UniProt P35408); experiment: hEP4 radioligand binding assay ([3H] PGE2 competitive binding, membrane fractions); settings: 300 nM compound; 1 nM [3H] PGE2
T1 construct: expressed in transfected cells; host or cells: FreeStyle293 (HEK293F) cells, transient transfection with pcDNA3.1(+), total membrane fraction
Text: The full-length coding sequences for human EP1 (NM_000955), human EP2 (NM_000956), human EP3 (NM_198717) and human EP4 (NM_000958) were cloned into pcDNA3.1(+) vector (Life Technologies, CA, USA). In order to prepare overexpressed EP 1-4 membrane in Freestyle293 cells (Life Technologies, CA, USA), the pcDNA3.1(+) vector encoding a cDNA of the relevant gene was transiently transfected into FreeStyle293 cells using 293Fectin (Life Technologies, CA, USA) according to the manufacturer instruction manual. After 2 days, cultured cells were centrifuged (1,000×g, 10 min, 4° C.) and pellets homogenized by a probe sonicator (Sonics vibracell, Sonics and Materials Inc., USA; 31% Amp, 5 sec pulse, Imin interval, 4 cycles) in ice-cold 50 mM Tris-HCl buffer (pH 7.5 at 25° C.) containing 0.5 mM EDTA, 250 mM Sucrose and 10 mM MgCl2. Cell homogenates were centrifuged (890×g, 10 min, 4° C.), and the supernatant was recovered. Total membrane fractions were isolated by ultracentrifugation (140,000×g, 60 min, 4° C.). Pellets were re-suspended in the same buffer, and stored at −80° C. until use. The protein concentration in homogenate was determined with the BCA Protein Assay Kit (Pierce Biotechnology, Inc., IL, USA) according to the manufacturer protocol.
The binding affinity of the compounds was evaluated using a competitive radioligand binding assay which measured the specific binding of [3H] PGE2 to the human EP4 receptor. Briefly, varying concentrations of NCEs were incubated with cell membrane fractions generated HEK293F cells transiently transfected with human EP4 receptor as described above. Each reaction consisted of 10 μg membrane protein and NCE in 50 mM Tris-HCl, pH-6.0 by NaOH, 10 mM MgCl2 and 0.5 mM EDTA assay buffer. Radioligand, [3H] PGE2 (American Radiochemicals Inc. Specific Activity 180 Ci/mmol), at a final of 1 nM was added to each reaction where the final assay volume was 200 μL and concentration of DMSO was adjusted to 1%. Appropriate controls included total binding in the assay (vehicle control) and control for non-specific binding. Non-specific binding was evaluated by incubating the hEP4 protein with 10 μM unlabeled PGE2 under the same assay conditions as NCEs. The reaction was incubated at room temperature for 2 hours and terminated by harvesting the reaction contents to a PEI coated GF/C filter plate (PerkinElmer). The plate was washed four times with cold 50 mM Tris-HCl, pH-7.5 wash buffer and dried at 50° C. for 2 hours or at 37° C. overnight. [3H] PGE2 bound to the protein was quantified by the addition of 25 μL of Microscint PS (PerkinElmer) and plate was read on MicroBeta2 liquid Scintillation and luminescence counter (PerkinElmer). Data was analyzed using GraphPad Prism 5 (GraphPad Software Inc., San Diego, Calif.) where non-specific binding was normalized to 0% specific binding of [3]PGE2 and vehicle control (DMSO) was normalized to 100% specific binding of [3]PGE2. Binding affinity of NCEs, Ki, was generated using One site—Fit Ki equation in GraphPad Prism 5.

[1] = molecular target: T2, hEP4 (C6 glioma cells overexpressing hEP4) (Homo sapiens, UniProt P35408); experiment: hEP4 cell based assay (cAMP), inhibition of PGE2 induced cAMP, HTRF; settings: 1 μM compound, PGE2 at EC80
T2 construct: host or cells: C6 glioma cells overexpressing hEP4
Experimental: The functional assay for hEP4 activation and inhibition was carried out via the quantitative determination of agonist, PGE2, induced cAMP response using HTRF in a competitive immunoassay (Cisbio dynamic 2 kit). NCEs at varying concentrations were evaluated for inhibition of PGE2 induced increase in cAMP. Briefly, C6 glioma cells overexpressing hEP4 (Takeda) were cultured in DMEM (low glucose, pyruvate), 10% FBS (Gibco) and PenStep. The cells were harvested on the day of the assay, washed with HBSS+10 mM HEPES (pH 7.4)+0.1% BSA buffer and pre-incubated with varying concentrations of NCE. Each reaction contained 7000 cells and NCEs in HBSS+10 mM HEPES+0.1% BSA assay buffer along with PDE inhibitors IBMX and Ro 20-1724 (final concentration of each inhibitor […]). Following 15 min pre-incubation, the cells were treated with EC80 concentration of agonist PGE2 for 30 min to induce cAMP. Final volume of the assay was 6 μL and DMSO concentration was maintained at 1%. The reaction was terminated with the addition of cAMP labeled with the dye d2 in lysis buffer according to manufacturers' protocol. This was followed by the addition of the anti-cAMP antibody labeled with Cryptate according to the manufacturers' protocol. The reaction was incubated at room temperature in dark for 45 min and the plate was evaluated for fluorescence at 665 nm (FRET) and 620 nm (cryptate emission) on a Flexstation III microplate reader (Molecular Devices, Sunnyvale, Calif.) Ex max: 313 nm; Em1: 620 nm; Em2: 665 nm. Data was analyzed using GraphPad Prism 5 (GraphPad Software Inc., San Diego, Calif.) where cells treated with agonist (EC80) was normalized to 0% inhibition of hEP4 and cells treated with buffer (no agonist) was normalized to 100% inhibition of hEP4. IC50 of NCEs was generated using non-linear regression—Log(inhibitor) vs. response equation in GraphPad Prism 5.

T1 sequence (P35408 whole entry): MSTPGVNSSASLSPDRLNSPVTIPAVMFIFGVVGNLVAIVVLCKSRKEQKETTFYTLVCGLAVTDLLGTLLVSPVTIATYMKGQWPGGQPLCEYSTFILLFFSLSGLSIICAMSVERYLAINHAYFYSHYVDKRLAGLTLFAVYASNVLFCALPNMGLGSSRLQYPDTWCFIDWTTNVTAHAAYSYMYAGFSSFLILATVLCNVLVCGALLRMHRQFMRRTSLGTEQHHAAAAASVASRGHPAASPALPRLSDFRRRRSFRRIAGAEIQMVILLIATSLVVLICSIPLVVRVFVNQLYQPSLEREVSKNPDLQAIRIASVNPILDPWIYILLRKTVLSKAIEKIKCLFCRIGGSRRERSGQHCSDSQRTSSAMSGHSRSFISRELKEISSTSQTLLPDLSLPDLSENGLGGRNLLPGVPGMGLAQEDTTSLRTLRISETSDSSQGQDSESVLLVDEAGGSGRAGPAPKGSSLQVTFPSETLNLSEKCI
T2 sequence (P35408 whole entry): as above

SMILES	inhibition at 0.3 µM (human EP4 receptor) [%]	inhibition at 1 µM [1] [%]
COc1cccc(CN2CCOc3ccnc(NC4(c5ccc(C(=O)O)cc5)CC4)c32)c1 [Example B23, 4-[1-[[4-[(3-methoxyphenyl)methyl]-2,3-dihydropyrido[4,3-b][1,4]oxazin-5-yl]amino]cyclopropyl]benzoic acid]	100	74
C[C@H](Nc1nccc2c1N(Cc1ccc(C(F)(F)F)cc1)CCC2)c1ccc(C(=O)O)cc1 [Example B37, 4-[(1S)-1-[[1-[[4-(trifluoromethyl)phenyl]methyl]-3,4-dihydro-2H-1,7-naphthyridin-8-yl]amino]ethyl]benzoic acid]	97	97
C[C@H](Nc1nccc2c1N(Cc1cccc(Cl)c1)CCC2)c1ccc(C(=O)O)cc1 [Example B45, 4-[(1S)-1-[[1-[(3-chlorophenyl)methyl]-3,4-dihydro-2H-1,7-naphthyridin-8-yl]amino]ethyl]benzoic acid]	100	98
CCONC(=O)c1ccc([C@H](C)Nc2nccc3c2N(Cc2ccc(C(F)(F)F)cc2)CCO3)cc1 [Example D4, N-ethoxy-4-[(1S)-1-[[4-[[4-(trifluoromethyl)phenyl]methyl]-2,3-dihydropyrido[4,3-b][1,4]oxazin-5-yl]amino]ethyl]benzamide]	92	93
C[C@@H](Nc1nccc2c1N(Cc1cccc(Cl)c1)CCO2)c1ccc(C(=O)O)cc1 [Example B33, 4-[(1R)-1-[[4-[(3-chlorophenyl)methyl]-2,3-dihydropyrido[4,3-b][1,4]oxazin-5-yl]amino]ethyl]benzoic acid]	66	36
C[C@H](Nc1nccc2c1N(CC1CCCCC1)CCO2)c1ccc(C(=O)O)cc1 [Example B39, 4-[(1S)-1-[[4-(cyclohexylmethyl)-2,3-dihydropyrido[4,3-b][1,4]oxazin-5-yl]amino]ethyl]benzoic acid]	100	93
C[C@H](Nc1nccc2c1N(Cc1ccc(-c3ccccc3)cc1)CCO2)c1ccc(C(=O)O)cc1 [Example B30, 4-[(1S)-1-[[4-[(4-phenylphenyl)methyl]-2,3-dihydropyrido[4,3-b][1,4]oxazin-5-yl]amino]ethyl]benzoic acid]	87	77
Cc1ccc(CN2CCOc3ccnc(NC4(c5ccc(C(=O)O)cc5)CC4)c32)cc1 [Example B26, 4-[1-[[4-(p-tolylmethyl)-2,3-dihydropyrido[4,3-b][1,4]oxazin-5-yl]amino]cyclopropyl]benzoic acid]	93	87
Cc1ccc(CN2CCOc3ccnc(N[C@@H](C)c4ccc(C(=O)O)cc4)c32)cc1 [Example B11, 4-[(1S)-1-[[4-(p-tolylmethyl)-2,3-dihydropyrido[4,3-b][1,4]oxazin-5-yl]amino]ethyl]benzoic acid]	95	100
C[C@H](Nc1nccc2c1N(Cc1cccc(F)c1)CCO2)c1ccc(C(=O)O)cc1 [Example B8, 4-[(1S)-1-[[4-[(3-fluorophenyl)methyl]-2,3-dihydropyrido[4,3-b][1,4]oxazin-5-yl]amino]ethyl]benzoic acid]	97	100
C[C@H](Nc1nccc2c1N(Cc1ccc(Cl)cc1)CCO2)c1ccc(C(=O)O)cc1 [Example B7, 4-[(1S)-1-[[4-[(4-chlorophenyl)methyl]-2,3-dihydropyrido[4,3-b][1,4]oxazin-5-yl]amino]ethyl]benzoic acid]	99	100
C[C@H](Nc1nccc2c1N(Cc1ccc(F)c(F)c1)CCC2)c1ccc(C(=O)O)cc1 [Example B44, 4-[(1S)-1-[[1-[(3,4-difluorophenyl)methyl]-3,4-dihydro-2H-1,7-naphthyridin-8-yl]amino]ethyl]benzoic acid]	93	92
C[C@H](Nc1ncc(Cl)c2c1N(Cc1ccc(C(F)(F)F)cc1)CCO2)c1ccc(C(=O)O)cc1 [Example G1, 4-[(1S)-1-[[8-Chloro-4-[[4-(trifluoromethyl)phenyl]methyl]-2,3-dihydropyrido[4,3-b][1,4]oxazin-5-yl]amino]ethyl]benzoic acid]	100	92
C[C@H](Nc1nccc2c1N(CCc1cccc(Cl)c1)CCO2)c1ccc(C(=O)O)cc1 [Example B40, 4-[(1S)-1-[[4-[2-(3-chlorophenyl)ethyl]-2,3-dihydropyrido[4,3-b][1,4]oxazin-5-yl]amino]ethyl]benzoic acid]	80	85
C[C@H](Nc1nccc2c1N(Cc1ccc(C(F)(F)F)cc1)CCO2)c1ccc(-c2nnn[nH]2)cc1 [Example F1, N-[(1S)-1-[4-(1H-Tetrazol-5-yl)phenyl]ethyl]-4-[[4-(trifluoromethyl)phenyl]methyl]-2,3-dihydropyrido[4,3-b][1,4]oxazin-5-amine]	100	90
C[C@H](Nc1nccc2c1N(Cc1ccc(C(F)(F)F)cc1)CCO2)c1ccc(C(=O)O)cc1 [Example B5, 4-[(1S)-1-[[4-[[4-(trifluoromethyl)phenyl]methyl]-2,3-dihydropyrido[4,3-b][1,4]oxazin-5-yl]amino]ethyl]benzoic acid]	74	100
C[C@H](Nc1nccc2c1N(Cc1ccc(F)c(F)c1)CCO2)c1ccc(C(=O)O)cc1 [Example B6, 4-[(1S)-1-[[4-[(3,4-difluorophenyl)methyl]-2,3-dihydropyrido[4,3-b][1,4]oxazin-5-yl]amino]ethyl]benzoic acid]	89	100
O=C(O)c1ccc(C2(Nc3nccc4c3N(Cc3ccc(Cl)cc3)CCO4)CC2)cc1 [Example B19, 4-[1-[[4-[(4-chlorophenyl)methyl]-2,3-dihydropyrido[4,3-b][1,4]oxazin-5-yl]amino]cyclopropyl]benzoic acid]	92	81
Cc1cnc(N[C@@H](C)c2ccc(C(=O)O)cc2)c2c1OCCN2Cc1cccc(C(F)(F)F)c1 [Example B46, 4-[(1S)-1-[[8-Methyl-4-[[3-(trifluoromethyl)phenyl]methyl]-2,3-dihydropyrido[4,3-b][1,4]oxazin-5-yl]amino]ethyl]benzoic acid]	87	95
